According to ChEMBL document CHEMBL5465560, “Selectivity Literature for EUbOPEN Chemogenomic Library” (2024):
One block for each compound: values may come before it.

How the values were obtained:
[1] = target: T1, Dual specificity tyrosine-phosphorylation-regulated kinase 3 (Homo sapiens) (UniProt O43781); assay: Selectivity interaction (Kinase panel (Invitrogen)) EUB0000639a DYRK3; settings: at 200 nM
T1 sequence (whole entry): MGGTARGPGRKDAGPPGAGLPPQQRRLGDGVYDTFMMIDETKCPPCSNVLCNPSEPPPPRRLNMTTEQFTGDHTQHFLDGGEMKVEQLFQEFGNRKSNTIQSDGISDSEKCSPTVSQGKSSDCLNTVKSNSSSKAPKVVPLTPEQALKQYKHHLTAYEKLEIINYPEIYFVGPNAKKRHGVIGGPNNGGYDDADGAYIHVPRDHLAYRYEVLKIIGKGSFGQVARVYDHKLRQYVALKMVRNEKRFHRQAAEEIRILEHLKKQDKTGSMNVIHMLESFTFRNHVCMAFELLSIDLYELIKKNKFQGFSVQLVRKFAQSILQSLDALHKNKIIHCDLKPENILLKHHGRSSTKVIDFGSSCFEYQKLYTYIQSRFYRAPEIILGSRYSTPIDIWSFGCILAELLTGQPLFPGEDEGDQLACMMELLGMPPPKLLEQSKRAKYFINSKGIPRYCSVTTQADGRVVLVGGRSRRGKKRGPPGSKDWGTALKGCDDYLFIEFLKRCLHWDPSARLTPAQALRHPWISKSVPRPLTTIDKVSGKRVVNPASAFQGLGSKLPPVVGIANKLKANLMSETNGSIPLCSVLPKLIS

[2] = target: T2, Histone-lysine N-methyltransferase SETD7 (Homo sapiens) (UniProt Q8WTS6); settings: at 10 µM
T2 sequence (whole entry): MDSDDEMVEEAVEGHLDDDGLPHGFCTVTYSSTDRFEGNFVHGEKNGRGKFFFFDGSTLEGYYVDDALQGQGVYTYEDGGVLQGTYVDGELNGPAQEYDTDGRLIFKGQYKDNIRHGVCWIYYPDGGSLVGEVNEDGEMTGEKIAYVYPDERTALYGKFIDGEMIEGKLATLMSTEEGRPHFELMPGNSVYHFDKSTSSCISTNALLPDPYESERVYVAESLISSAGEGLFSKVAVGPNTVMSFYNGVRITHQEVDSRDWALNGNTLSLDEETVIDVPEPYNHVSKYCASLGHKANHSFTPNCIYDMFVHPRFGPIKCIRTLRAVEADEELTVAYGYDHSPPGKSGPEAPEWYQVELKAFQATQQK

[3] = target: T3, Mitogen-activated protein kinase kinase kinase kinase 2 (Homo sapiens) (UniProt Q12851); assay: Selectivity interaction (KinomeScan (DiscoverX)) EUB0001079a MAP4K2; settings: at 1 µM
T3 sequence (whole entry): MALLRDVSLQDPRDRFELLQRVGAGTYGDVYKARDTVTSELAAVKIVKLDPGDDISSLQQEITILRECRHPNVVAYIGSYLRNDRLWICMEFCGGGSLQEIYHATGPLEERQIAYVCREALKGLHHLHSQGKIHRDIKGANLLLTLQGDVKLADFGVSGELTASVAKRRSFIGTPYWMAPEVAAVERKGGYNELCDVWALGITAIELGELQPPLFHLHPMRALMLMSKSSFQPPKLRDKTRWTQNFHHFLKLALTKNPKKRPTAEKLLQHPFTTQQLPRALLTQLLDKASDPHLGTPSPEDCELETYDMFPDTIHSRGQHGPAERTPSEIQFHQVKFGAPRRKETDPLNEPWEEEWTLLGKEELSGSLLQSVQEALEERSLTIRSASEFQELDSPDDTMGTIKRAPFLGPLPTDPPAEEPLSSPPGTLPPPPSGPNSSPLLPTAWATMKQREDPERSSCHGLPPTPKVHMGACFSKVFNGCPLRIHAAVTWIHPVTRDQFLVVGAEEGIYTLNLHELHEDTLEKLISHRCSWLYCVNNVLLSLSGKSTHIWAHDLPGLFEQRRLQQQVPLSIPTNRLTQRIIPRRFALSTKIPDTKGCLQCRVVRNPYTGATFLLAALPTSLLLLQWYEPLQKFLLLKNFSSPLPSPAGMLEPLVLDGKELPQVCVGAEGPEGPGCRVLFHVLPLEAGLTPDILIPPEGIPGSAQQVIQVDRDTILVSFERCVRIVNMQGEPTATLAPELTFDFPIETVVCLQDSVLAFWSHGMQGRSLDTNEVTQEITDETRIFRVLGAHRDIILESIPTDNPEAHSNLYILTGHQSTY

[4] = target: Mitogen-activated protein kinase 6 (Homo sapiens) (UniProt Q16659); assay: Selectivity interaction (KinomeScan (DiscoverX)) EUB0000655a MAPK6; settings: at 10 µM
[5] = target: Mast/stem cell growth factor receptor Kit (Homo sapiens, UniProt P10721); assay: (§1) Selectivity interaction (SelectScreen profiling (Invitrogen)) EUB0000607a KIT; settings: at 2 µM
[6] = test system: Mast/stem cell growth factor receptor Kit (Homo sapiens), P10721 [T670I]; assay: as §1; settings: at 2 µM
[7] = target: cAMP-dependent protein kinase catalytic subunit beta (Homo sapiens) (UniProt P22694); assay: Selectivity interaction (KinomeScan (DiscoverX)) EUB0000607a PRKACB; settings: at 10 µM
[8] = target: T4, Phosphatidylinositol 5-phosphate 4-kinase type-2 gamma (Homo sapiens) (UniProt Q8TBX8); assay: Selectivity interaction (Kinase panel (KiNativ target engagement assay in Jurkat cells)) EUB0001635a PIP4K2C; format: cell-based; settings: Selectivity number of off-targets 0.0, Selectivity number of targets 233.0, Source Knowledge https://www.sciencedirect.com/science/article/pii/S2451945619300674?via%3Dihub, at 1 µM
T4 sequence (whole entry): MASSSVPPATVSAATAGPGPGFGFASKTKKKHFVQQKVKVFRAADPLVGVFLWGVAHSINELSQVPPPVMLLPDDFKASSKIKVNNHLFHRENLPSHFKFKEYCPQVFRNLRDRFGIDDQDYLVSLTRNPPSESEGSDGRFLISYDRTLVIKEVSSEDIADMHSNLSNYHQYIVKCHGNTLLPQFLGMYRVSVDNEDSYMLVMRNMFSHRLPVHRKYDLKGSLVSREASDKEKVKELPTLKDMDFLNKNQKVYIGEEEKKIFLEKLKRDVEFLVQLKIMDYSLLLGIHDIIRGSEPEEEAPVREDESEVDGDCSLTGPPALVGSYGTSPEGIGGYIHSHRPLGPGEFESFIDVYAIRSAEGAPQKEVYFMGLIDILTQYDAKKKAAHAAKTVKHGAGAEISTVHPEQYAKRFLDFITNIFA

[9] = target: Serine/threonine-protein kinase pim-3 (Homo sapiens) (UniProt Q86V86); assay: Selectivity interaction (Kinase panel (DSF assay)) EUB0001558a PIM3

Sequence of Mitogen-activated protein kinase 6 (Homo sapiens) (Q16659 whole entry): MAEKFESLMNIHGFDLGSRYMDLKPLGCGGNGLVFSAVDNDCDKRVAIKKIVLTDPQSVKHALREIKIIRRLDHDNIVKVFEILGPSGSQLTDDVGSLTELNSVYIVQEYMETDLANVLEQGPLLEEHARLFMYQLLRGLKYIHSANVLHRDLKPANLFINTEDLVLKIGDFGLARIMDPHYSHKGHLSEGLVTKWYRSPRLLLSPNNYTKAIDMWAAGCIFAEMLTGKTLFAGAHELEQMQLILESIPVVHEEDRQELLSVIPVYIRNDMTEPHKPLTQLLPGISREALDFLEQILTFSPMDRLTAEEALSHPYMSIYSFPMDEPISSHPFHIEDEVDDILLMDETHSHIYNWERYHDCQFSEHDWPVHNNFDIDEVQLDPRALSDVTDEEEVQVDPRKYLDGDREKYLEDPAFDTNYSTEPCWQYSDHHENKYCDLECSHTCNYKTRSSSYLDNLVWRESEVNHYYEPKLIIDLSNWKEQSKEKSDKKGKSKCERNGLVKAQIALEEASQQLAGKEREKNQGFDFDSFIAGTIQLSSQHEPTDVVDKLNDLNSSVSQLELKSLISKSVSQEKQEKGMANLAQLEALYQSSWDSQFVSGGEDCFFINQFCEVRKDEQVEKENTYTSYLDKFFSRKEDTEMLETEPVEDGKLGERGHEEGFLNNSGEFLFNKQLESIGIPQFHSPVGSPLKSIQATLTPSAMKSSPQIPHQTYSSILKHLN
Sequence of Mast/stem cell growth factor receptor Kit (P10721 whole entry): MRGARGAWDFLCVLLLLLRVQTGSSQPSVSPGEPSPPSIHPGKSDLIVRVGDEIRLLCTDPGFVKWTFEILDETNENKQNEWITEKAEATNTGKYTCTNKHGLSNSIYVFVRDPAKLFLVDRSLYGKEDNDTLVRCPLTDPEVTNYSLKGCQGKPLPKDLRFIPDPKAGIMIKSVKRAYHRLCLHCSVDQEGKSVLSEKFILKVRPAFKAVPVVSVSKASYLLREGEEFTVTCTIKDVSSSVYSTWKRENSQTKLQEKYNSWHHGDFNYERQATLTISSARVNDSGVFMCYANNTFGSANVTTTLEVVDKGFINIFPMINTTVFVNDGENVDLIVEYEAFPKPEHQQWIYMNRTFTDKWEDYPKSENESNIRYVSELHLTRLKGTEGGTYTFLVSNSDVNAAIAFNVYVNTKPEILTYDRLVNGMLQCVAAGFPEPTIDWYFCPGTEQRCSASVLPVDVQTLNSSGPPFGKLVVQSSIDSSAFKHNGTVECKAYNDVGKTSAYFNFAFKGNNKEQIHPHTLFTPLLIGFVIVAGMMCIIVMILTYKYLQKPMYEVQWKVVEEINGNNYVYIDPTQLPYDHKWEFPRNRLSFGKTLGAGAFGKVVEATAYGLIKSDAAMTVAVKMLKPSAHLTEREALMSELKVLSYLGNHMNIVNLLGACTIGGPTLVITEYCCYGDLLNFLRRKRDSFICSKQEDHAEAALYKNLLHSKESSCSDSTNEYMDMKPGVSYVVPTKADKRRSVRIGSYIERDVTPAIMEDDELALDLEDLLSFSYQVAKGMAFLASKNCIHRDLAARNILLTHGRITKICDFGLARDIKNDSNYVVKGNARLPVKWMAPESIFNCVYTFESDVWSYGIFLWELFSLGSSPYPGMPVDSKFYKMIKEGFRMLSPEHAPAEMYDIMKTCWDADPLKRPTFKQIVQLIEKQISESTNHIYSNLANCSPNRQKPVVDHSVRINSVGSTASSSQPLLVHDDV
Sequence of Mast/stem cell growth factor receptor Kit (Homo sapiens), P10721 [T670I] (P10721 whole entry T670I): as the sequence (P10721 whole entry) above, with T670I counted along it

% of inhibition [1]: 6.43%
Structure (SMILES): CC[C@@H]1[C@H](F)C(=O)N[C@@H]1COc1nccc2cc(C(N)=O)c(OC)cc12 [ZIMLOVISERTIB]

% activity [2]: > 90%
Structure (SMILES): CNCCN1CCC(c2cc(CN(C)C(=O)c3cccc(Oc4ccccc4)c3)ccn2)CC1

Structure (SMILES): Nc1cnc(N2CCc3cc(S(=O)(=O)Nc4c(F)cc(Cl)cc4F)cc(N4CCCC4=O)c32)nc1 [TP-020n]
% of control [3]: 90%

Structure (SMILES): CN(C)CCOc1ccc(-c2nc(-c3ccncc3)c(-c3ccc4c(c3)CC/C4=N\O)[nH]2)cc1
% of control [4]: 92%

Structure (SMILES): CNC(=O)Nc1ccc(-c2nc(N3CC4CCC(C3)O4)c3cnn(C4CCC5(CC4)OCCO5)c3n2)cc1
% of inhibition [5]: 10%
% of inhibition [6]: 7%
% of control [7]: 87%

Structure (SMILES): C=CC(=O)Nc1ccc(C(=O)Nc2[nH]nc3c2CN(C(=O)N[C@H](CN(C)C)c2ccccc2)C3(C)C)cc1
% of engagement [8]: -6.5%

Structure (SMILES): CC(C)(O)[C@H](F)CN1Cc2cc(NC(=O)c3cnn4cccnc34)c(N3CCOCC3)cc2C1=O
dTM [9]: 1 K
